Reference: ChEMBL document CHEMBL1155771, “Emergence of KPC-2 and KPC-3 in carbapenem-resistant Klebsiella pneumoniae strains in an Israeli hospital” (2007)
≈ marks a conversion by molar mass, not a printed value.

Experiments:
Klebsiella pneumoniae [1] = test: Antibacterial activity against carbapenem-resistant Klebsiella pneumoniae 469 isolate producing KPC2, OXA4 and CTX-M-10 carbapenemases; type: functional
Klebsiella pneumoniae [2] = test: Antibacterial activity against carbapenem-resistant Klebsiella pneumoniae 490 isolate producing KPC3 and TEM1 carbapenemases; type: functional
Escherichia coli [3] = test: Antibacterial activity against sEscherichia coli GeneHogs recipient strain without blaKPC-encoding plasmid
Escherichia coli [4] = test: Antibacterial activity against carbapenem-resistant blaKPC-encoding plasmid harboring Escherichia coli GeneHogs transformant of Klebsiella pneumoniae 490 producing KPC3 and TEM1 carbapenemases
Escherichia coli [5] = test: Antibacterial activity against carbapenem-resistant blaKPC-encoding plasmid harboring Escherichia coli GeneHogs transformants of Klebsiella pneumoniae 469 producing KPC2, OXA4 and CTX-M-10 carbapenemases

Molecule | MIC (Klebsiella pneumoniae [1]) [µg/mL] | MIC (Klebsiella pneumoniae [2]) [µg/mL] | MIC (Escherichia coli [3]) [µg/mL] | MIC (Escherichia coli [4]) [µg/mL] | MIC (Escherichia coli [5]) [µg/mL]
C[C@@H](O)[C@H]1C(=O)N2C(C(=O)O)=C(S[C@@H]3CN[C@H](C(=O)Nc4cccc(C(=O)O)c4)C3)[C@H](C)[C@H]12 | 16 (≈ 33.6 µM) | 64 (≈ 135 µM) | < 0.25 | 2 (≈ 4.21 µM) | 4 (≈ 8.41 µM)
CO/N=C(\C(=O)N[C@@H]1C(=O)N2C(C(=O)[O-])=C(C[N+]3(C)CCCC3)CS[C@H]12)c1csc(N)n1 | > 64 | > 64 | < 1 |  | 
NCC[C@H](O)C(=O)N[C@@H]1C[C@H](N)[C@@H](O[C@H]2O[C@H](CN)[C@@H](O)[C@H](O)[C@H]2O)[C@H](O)[C@H]1O[C@H]1O[C@H](CO)[C@@H](O)[C@H](N)[C@H]1O [AMIKACIN] | 4 (≈ 6.83 µM) | > 64 | < 2 | < 2 | 16 (≈ 27.3 µM)
C[C@H]1[C@H](NC(=O)/C(=N\OC(C)(C)C(=O)O)c2csc(N)n2)C(=O)N1S(=O)(=O)O [AZTREONAM] |  |  | < 1 |  | 32 (≈ 73.5 µM)
CC(C)(O/N=C(\C(=O)N[C@@H]1C(=O)N2C(C(=O)[O-])=C(C[n+]3ccccc3)CS[C@H]12)c1csc(N)n1)C(=O)O [CEFTAZIDIME] | > 64 | > 64 | < 1 | 16 (≈ 29.3 µM) | > 64
CO/N=C(\C(=O)N[C@@H]1C(=O)N2C(C(=O)O)=C(CSc3nc(=O)c(O)nn3C)CS[C@H]12)c1csc(N)n1 [CEFTRIAXONE] | > 64 | > 64 | < 1 | 8 (≈ 14.4 µM) | > 64
O=C(O)c1cn(C2CC2)c2cc(N3CCNCC3)c(F)cc2c1=O [CIPROFLOXACIN] |  |  | < 0.25 |  | 
C[C@@H](O)[C@H]1C(=O)N2C(C(=O)O)=C(SCCNC=N)C[C@H]12 [IMIPENEM ANHYDROUS] | 16 (≈ 53.4 µM) | 32 (≈ 107 µM) | < 0.25 | 4 (≈ 13.4 µM) | 4 (≈ 13.4 µM)
C[C@@H](O)[C@H]1C(=O)N2C(C(=O)O)=C(S[C@@H]3CN[C@H](C(=O)N(C)C)C3)[C@H](C)[C@H]12 [MEROPENEM] | 8 (≈ 20.9 µM) | 32 (≈ 83.4 µM) | < 0.25 | 2 (≈ 5.22 µM) | 4 (≈ 10.4 µM)
CCN1CCN(C(=O)N[C@@H](C(=O)N[C@@H]2C(=O)N3[C@@H]2SC(C)(C)[C@@H]3C(=O)O)c2ccccc2)C(=O)C1=O [PIPERACILLIN] | > 128 | > 128 | < 4 | > 128 | > 128
CN(C)c1cc(NC(=O)CNC(C)(C)C)c(O)c2c1C[C@H]1C[C@H]3[C@H](N(C)C)C(O)=C(C(N)=O)C(=O)[C@@]3(O)C(O)=C1C2=O [TIGECYCLINE] | 2 (≈ 3.41 µM) | 2 (≈ 3.41 µM) | 0.016 (≈ 0.0273 µM) | 0.5 (≈ 0.854 µM) | 0.5 (≈ 0.854 µM)
COLISTIN | 0.25 | 0.25 |  |  | 
